Counter-ions that a name gives are not always drawn.
Key:
dopamine D2 receptor [1] = biological target: T1, dopamine D2 receptor (Rattus norvegicus, UniProt P61169); assay: Ratio of D2 Spiper to D2 Quin. (LowAg/HighAg, intrinsic activity); type: binding; details: D2 Spiper IC50 / D2 Quin. IC50 (LowAg/HighAg)
T1 construct: from tissue; host or cells: limbic brain tissue homogenate
Description: Efforts to induce antipsychotic activity with dopamine autoreceptor agonists have been successful (e.g., see Dorsini et al., Adv. Biochem. Psychopharmacol., 16:645-648 (1977); Tamminga et al., Science, 200:567-568 (1975); and Tamminga et al., Psychiatry 398-402 (1986). A method for determining intrinsic activity at the dopamine D2 receptor was recently reported by Lahti et al., Mol. Pharm. 42:432-438 (1993). Intrinsic activity is predicted using the ratio of the "low-affinity agonist" (i.e., LowAg) state of the receptor and the "high-affinity agonist" (i.e., HighAg) state of the receptor, i.e. LowAg/HighAg. These ratios correlate with the agonist, partial agonist, and antagonist activities of a given compound. Such activities characterize the ability of a compound to elicit an antipsychotic effect.
The affinity for the dopamine autoreceptor was established by the standard experimental test procedure of Seemen and Schaus, European Journal of Pharmacology, 203:105-109 (1991). According to this procedure, homogenized rat striatal brain tissue was incubated with the appropriate concentrations of test compound, filtered and washed and counted in a Betaplate scintillation counter. […]

[2] = biological target: T2, dopamine autoreceptor (D2) (Rattus norvegicus, UniProt P61169); assay: Affinity for the dopamine autoreceptor, rat striatal tissue homogenate (D2 Quin.); type: binding; details: homogenized rat striatal brain tissue
T2 construct: from tissue; host or cells: rat striatum homogenate
T2 sequence (P61169 whole entry): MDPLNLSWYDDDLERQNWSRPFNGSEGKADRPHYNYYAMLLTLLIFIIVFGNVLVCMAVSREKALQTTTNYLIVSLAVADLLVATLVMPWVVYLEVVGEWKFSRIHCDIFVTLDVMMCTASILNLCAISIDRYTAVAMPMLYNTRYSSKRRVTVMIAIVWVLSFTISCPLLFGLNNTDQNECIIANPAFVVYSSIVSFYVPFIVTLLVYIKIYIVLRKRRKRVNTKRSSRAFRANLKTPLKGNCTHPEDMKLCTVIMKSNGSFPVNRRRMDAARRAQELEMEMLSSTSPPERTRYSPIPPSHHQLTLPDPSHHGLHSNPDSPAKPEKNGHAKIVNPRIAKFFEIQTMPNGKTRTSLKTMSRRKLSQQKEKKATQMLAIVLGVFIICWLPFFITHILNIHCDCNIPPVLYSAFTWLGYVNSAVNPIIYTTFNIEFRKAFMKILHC
Experimental: The affinity for the dopamine autoreceptor was established by the standard experimental test procedure of Seemen and Schaus, European Journal of Pharmacology, 203:105-109 (1991). According to this procedure, homogenized rat striatal brain tissue was incubated with the appropriate concentrations of test compound, filtered and washed and counted in a Betaplate scintillation counter.

dopamine D2 receptor [3] = biological target: T1, dopamine D2 receptor; assay: Affinity for the dopamine D2 receptor, 3H-spiroperidol binding in limbic brain tissue homogenate (D2 Spiper); details: 3H-spiroperidol (Spiper.); homogenized limbic brain tissue
Experimental: High affinity for the dopamine D2 receptor was established by the standard experimental test procedure of Fields, et al., Brain Res., 136:578 (1977) and Yamamura et al., eds., Neurotransmitter Receptor Binding, Raven Press, N.Y. (1978). Homogenized limbic brain tissue was incubated with ^3 H-spiroperidol (Spiper.) and the appropriate concentrations of test compound, filtered, washed and shaken with Hydrofluor scintillation cocktail (available from National Diagnostics) and counted in a Packard 460 CD scintillation counter.

T1 sequence (P61169 whole entry): as above

Ratio (dopamine D2 receptor [1]): 67.7 | IC50 [2]: 13.2 nM | IC50 (dopamine D2 receptor [3]): 892 nM
SMILES: O=C1Cc2c(NCCNCc3ccccc3)cccc2N1 [Example 1, 4-(2-Benzylamino-ethylamino)-1,3-dihydro-indol-2-one.dihydrochloride.0.1 hydrate]

— patent publication US6228880A, “4-amino-(ethylamino)-oxindole dopamine autoreceptor agonists” (American Home Products Corp, priority 1999, dated 2001)
